pKi: −log10 of the molar value.
What was measured:
human cathepsin B = target: T1, human cathepsin B (Homo sapiens, UniProt P07858); assay: Cathepsin B peptidase activity assay (Ki); type: biochemical; conditions: read-out: Ki, inhibitors of cathepsin B
T1 construct: purchased CN Biosciences
Experimental: Unless otherwise stated, all general chemicals and biochemicals were purchased from either the Sigma Chemical Company, Poole, Dorset, U.K or from Fisher Scientific UK, Loughborough, Leicestershire, U.K. Absorbance assays were carried out in flat-bottomed 96-well plates (Spectra; Greiner Bio-One Ltd., Stonehouse, Gloucestershire, U.K.) using a SpectraMax PLUS384 plate reader (Molecular Devices, Crawley, U.K.). […] Fluorescence assays were monitored using a SpectraMax Gemini fluorescence plate reader (Molecular Devices). For substrates employing either a 7-amino-4-methylcoumarin (AMC) or a 7-amino-4-trifluoromethylcoumarin (AFC) fluorophore, assays were monitored at an excitation wavelength of 365 nm and an emission wavelength of 450 nm and the fluorescence plate reader calibrated with AMC. For substrates employing a 3-amino-benzoyl (Abz) fluorophore, assays were monitored at an excitation wavelength of 310 nm and an emission wavelength of 445 nm; the fluorescence plate reader calibrated with 3-amino-benzamide (Fluka). Unless otherwise indicated, all the peptidase substrates were purchased from Bachem UK, St Helens, Merseyside, UK. […] Hydroxyethylpiperazine ethanesulfonate (HEPES), tris-hydroxylmethyl aminomethane (tris) base, bis-tris-propane and all the biological detergents (e.g. CHAPS, zwittergents, etc.) were purchased from CN Biosciences UK, Beeston, Nottinghamshire, U.K. Glycerol was purchased from Amersham Pharmacia Biotech, Little Chalfont, Buckinghamshire, U.K. Stock solutions of substrate or inhibitor were made up to 10 mM in 100% dimethylsulfoxide (DMSO) (Rathburns, Glasgow, U.K.) and diluted as appropriately required. In all cases the DMSO concentration in the assays was maintained at less than 1% (vol./vol.).
Enzyme was added as required to initiate the reaction and the activity, as judged by the change in fluorescence upon conversion of substrate to product, was monitored over time. All assays were carried out at 25±1° C.
Bovine cathepsin S, human cathepsin L, human cathepsin H and human cathepsin B were obtained from CN Biosciences. Recombinant human cathepsin S, human cathepsin K and human cathepsin X were obtained from Dr. Boris Turk (Josef Stefan Institute, Ljubljana, Slovenia). Unless otherwise stated, all peptidase activity assays were carried out in 10 mM bis-tris-propane (BTP), pH 6.5 containing 1 mM EDTA, 5 mM 2-mercaptoethanol and 1 mM CaCl2.
The apparent inhibition constant (Ki) for each compound was determined on the basis that inhibition was reversible and occurred by a pure-competitive mechanism. […] [formula]
[formula] Ki^app=Ki(1+[So]/KM^app) (4)
Curves were fitted by non-linear regression analysis (Prism) using a fixed value for the enzyme concentration.

Wild-type cruzipain = Wild-type cruzipain (Trypanosoma cruzi, UniProt P25779); assay: Trypanosoma cruzi cruzipain peptidase activity assay (Ki); type: biochemical; conditions: read-out: Ki, inhibitors of cruzain and cruzipains
In short: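 Native cruzipain from T. cruzi Dm28 epimastigotes, 2.5 nM, in 100 mM sodium phosphate pH 6.75 with 1 mM EDTA and 10 mM L-cysteine, 25 °C, DMSO <1%. Rates taken from continuous fluorogenic substrate read; Ki by regression assuming reversible pure-competitive inhibition.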

Sequence of Wild-type cruzipain (P25779 whole entry): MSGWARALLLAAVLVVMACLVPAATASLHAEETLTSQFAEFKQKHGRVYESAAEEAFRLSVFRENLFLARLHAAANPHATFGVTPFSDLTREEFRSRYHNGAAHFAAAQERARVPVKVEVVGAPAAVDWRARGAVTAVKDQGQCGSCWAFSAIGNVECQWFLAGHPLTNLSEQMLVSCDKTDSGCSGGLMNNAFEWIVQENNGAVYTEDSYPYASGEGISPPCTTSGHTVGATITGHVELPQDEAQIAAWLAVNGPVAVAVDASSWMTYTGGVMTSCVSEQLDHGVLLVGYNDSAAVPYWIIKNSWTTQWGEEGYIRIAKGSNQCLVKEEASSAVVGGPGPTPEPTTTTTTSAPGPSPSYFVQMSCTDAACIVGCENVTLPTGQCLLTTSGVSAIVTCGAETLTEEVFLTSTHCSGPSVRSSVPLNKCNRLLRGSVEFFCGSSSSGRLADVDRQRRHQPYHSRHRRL

Row | pKi (human cathepsin B) | pKi (Wild-type cruzipain) | SMILES
1 | > 5.30 | > 5.30 | CS(=O)(=O)c1cccc(C(=O)N2CC(=O)[C@@H]3[C@H]2CCN3C(=O)[C@H](Cc2ccc(O)cc2)NC(=O)c2cccc(Br)c2)c1 [Example 304, (3aR,6aS)-3-Bromo-N-{(1S)-1-(4-hydroxy-benzyl)-2-[4-(3-methanesulfonyl-benzoyl)-6-oxo-hexahydro-pyrrolo[3,2-b]pyrrole-1-yl]-2-oxo-ethyl}-benzamide]
2 | > 5.30 | > 5.30 | O=C(N[C@@H](Cc1ccc(O)cc1)C(=O)N1CC[C@@H]2[C@H]1C(=O)CN2C(=O)c1cccc([N+](=O)[O-])c1)c1cccc(Br)c1 [Example 305, (3aR,6aS)-3-Bromo-N-{(1S)-1-(4-hydroxy-benzyl)-2-[4-(3-nitro-benzoyl)-6-oxo-hexahydro-pyrrolo[3,2-b]pyrrole-1-yl]-2-oxo-ethyl}-benzamide]
3 | > 5.30 | > 5.30 | O=C(N[C@@H](Cc1ccc(O)cc1)C(=O)N1CC[C@@H]2[C@H]1C(=O)CN2C(=O)C12CC3CC(CC(C3)C1)C2)c1cccc(Br)c1 [Example 307, (3aR,6aS)-N-[(1S)-2-[4-(Adamantane-1-carbonyl)-6-oxo-hexa hydro-pyrrolo[3,2-b]pyrrole-1-yl)-1-(4-hydroxy-benzyl)-2-oxo-ethyl]-3-bromo-benzamide]
4 | > 5.30 | > 5.30 | O=C(N[C@@H](Cc1ccc(O)cc1)C(=O)N1CC[C@@H]2[C@H]1C(=O)CN2C(=O)C12CC3CC(CC1C3)C2)c1cccc(Br)c1 [Example 308, (3aR,6aS)-3-Bromo-N-[(1S)-2-[4-(hexahydro-2,5-methano-pentalene-3a-carbonyl)-6-oxo-hexahydro-pyrrolo[3,2-b]pyrrole-1-yl]-1-(4-hydroxy-benzyl)-2-oxo-ethyl]-benzamide]

The remaining lines, values behind:

Row | SMILES | pKi (human cathepsin B) | pKi (Wild-type cruzipain)
5 | Cc1cccc(C(=O)N2CC(=O)[C@@H]3[C@H]2CCN3C(=O)[C@H](CC(C)C)NC(=O)c2ccc(N(C)C)cc2)c1 [Example 54, (3aR,6aS)-4-Dimethylamino-N-{(1S)-3-methyl-1-[4-(3-methyl-benzoyl)-6-oxo-hexahydro-pyrrolo[3,2-b]pyrrole-1-carbonyl]-butyl}-benzamide] | > 5.30 | > 5.30
6 | CC(C)C[C@H](NC(=O)c1ccc([N+](=O)[O-])cc1)C(=O)N1CC[C@@H]2[C@H]1C(=O)CN2C(=O)c1cccc(S(C)(=O)=O)c1 [Example 58, (3aR,6aS)-N-{(1S)-1-[4-(3-Methanesulfonyl-benzoyl)-6-oxo-hexahydro-pyrrolo[3,2-b]pyrrole-1-carbonyl]-3-methyl-butyl}-4-nitro-benzamide] | > 5.30 | > 5.30
7 | O=C(N[C@@H](Cc1ccc(O)cc1)C(=O)N1CC[C@@H]2[C@H]1C(=O)CN2C(=O)c1ccccc1)c1nccc2ccccc12 [Example 299, (3aR,6aS)-Isoquinoline-1-carboxylic acid [(1S)-2-(4-benzoyl-6-oxo-hexahydro-pyrrolo[3,2-b]pyrrol-1-yl)-1-(4-hydroxy-benzyl)-2-oxo-ethyl]-amide] | > 5.30 | > 5.30
8 | O=C(N[C@@H](Cc1ccc(O)cc1)C(=O)N1CC[C@@H]2[C@H]1C(=O)CN2C(=O)c1ccccc1)c1cc2ccccc2s1 [Example 300, (3aR,6aS)-Benzo[b]thiophene-2-carboxylic acid [(1S)-2-(4-benzoyl-6-oxo-hexahydro-pyrrolo[3,2-b]pyrrole-1-yl)-1-(4-hydroxy-benzyl)-2-oxo-ethyl]-amide] | > 5.30 | > 5.30
9 | O=C(N[C@@H](Cc1ccc(O)cc1)C(=O)N1CC[C@@H]2[C@H]1C(=O)CN2C(=O)c1cccc2ccccc12)c1cccc2ccccc12 [Example 301, (3aR,6aS)-Naphthalene-1-carboxylic acid {(1S)-1-(4-hydroxy-benzyl)-2-[4-(naphthalene-1-carbonyl)-6-oxo-hexahydro-pyrrolo[3,2-b]pyrrol-1-yl]-2-oxo-ethyl}-amide] | > 5.30 | > 5.30

From patent US20060100431A1, “Biologically active compounds” (Amura Therapeutics Limited, priority 2002, published 2006)
